Assay results from PubChem BioAssay (NCI).
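GI50 = concentration required for 50% inhibition of growth. TGI denotes the concentration required for complete inhibition of growth.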

Assays:
Experiment in all cases: DTP human tumour cell line panel, 384-well format
[1] = system: DU-145 prostate
[2] = system: M14 melanoma
[3] = system: EKVX NSCLC
[4] = system: HOP-92 NSCLC
[5] = system: SN12C renal
[6] = system: NCI/ADR-RES ovarian
[7] = system: SK-MEL-5 melanoma
[8] = system: SF-539 CNS
[9] = system: K-562 leukemia
[10] = system: NCI-H322M lung
[11] = system: MDA-MB-231 breast
[12] = system: HT29 colon
[13] = system: HL-60(TB) leukemia
[14] = system: A549 NSCLC
[15] = system: OVCAR-8 ovarian
[16] = system: COLO 205 colon
[17] = system: CCRF-CEM leukemia
[18] = system: HCC-2998 colon
[19] = system: U251 glioblastoma
[20] = system: SF-295 CNS
[21] = system: BT-549 breast
[22] = system: SK-MEL-28 melanoma
[23] = system: RXF 393 renal
[24] = system: UO-31 renal
[25] = system: OVCAR-5 ovarian
[26] = system: IGROV1 ovarian
[27] = system: SR leukemia
[28] = system: SW-620 colon
[29] = system: NCI-H23 lung
[30] = system: ACHN renal
[31] = system: T-47D breast
[32] = system: OVCAR-3 ovarian
[33] = system: RPMI-8226 leukemia
[34] = system: MDA-MB-468 breast
[35] = system: PC-3 prostate
[36] = system: A498 renal
[37] = system: OVCAR-4 ovarian
[38] = system: SNB-19 CNS
[39] = system: NCI-H226 lung
[40] = system: TK-10 renal
[41] = system: HCT-15 colon
[42] = system: MALME-3M melanoma
[43] = system: KM12 colon
[44] = system: SNB-75 CNS
[45] = system: LOX IMVI melanoma
[46] = system: MCF7 breast
[47] = system: SF-268 CNS
[48] = system: 786-0 renal
[49] = system: HS 578T breast
[50] = system: HCT-116 colon
[51] = system: HOP-62 NSCLC
[52] = system: NCI-H522 lung
[53] = system: NCI-H460 NSCLC
[54] = system: MOLT-4 leukemia
[55] = system: SK-OV-3 ovarian
[56] = system: MDA-MB-435 melanoma
[57] = system: UACC-62 melanoma
[58] = system: UACC-257 melanoma
[59] = system: CAKI-1 renal

CC(C)(C)c1nc(-c2cccc(NS(=O)(=O)c3c(F)cccc3F)c2F)c(-c2ccnc(N)n2)s1
GI50 [1]: 14900 nM
TGI [1]: 41600 nM
GI50 [2]: < 10 nM
TGI [2]: < 17 nM
GI50 [3]: 26600 nM
TGI [3]: 59600 nM
GI50 [4]: 50000 nM
TGI [4]: > 94000 nM
GI50 [5]: 38400 nM
TGI [5]: > 100000 nM
GI50 [6]: 22600 nM
TGI [6]: 53800 nM
GI50 [7]: < 10 nM
TGI [7]: > 100000 nM
GI50 [8]: 49700 nM
TGI [8]: > 94200 nM
GI50 [9]: 4590 nM
TGI [9]: 20700 nM
GI50 [10]: 23000 nM
TGI [10]: 69800 nM
GI50 [11]: 15000 nM
TGI [11]: 37400 nM
GI50 [12]: 12.4 nM
TGI [12]: > 58400 nM
GI50 [13]: 3980 nM
TGI [13]: 27300 nM
GI50 [14]: 20200 nM
TGI [14]: 72500 nM
GI50 [15]: 44300 nM
TGI [15]: 89000 nM
GI50 [16]: < 10 nM
GI50 [17]: 14400 nM
TGI [17]: > 44100 nM
GI50 [18]: 34800 nM
TGI [18]: > 74700 nM
GI50 [19]: 53800 nM
TGI [19]: > 100000 nM
GI50 [20]: 48100 nM
TGI [20]: > 100000 nM
GI50 [21]: 42700 nM
TGI [21]: 70100 nM
GI50 [22]: < 10 nM
GI50 [23]: 50500 nM
TGI [23]: > 81600 nM
GI50 [24]: 16600 nM
TGI [24]: > 100000 nM
GI50 [25]: 23800 nM
TGI [25]: > 85200 nM
GI50 [26]: 7650 nM
TGI [26]: > 52600 nM
GI50 [27]: 6620 nM
TGI [27]: 23800 nM
GI50 [28]: 32400 nM
TGI [28]: > 77400 nM
GI50 [29]: 13700 nM
TGI [29]: 52300 nM
GI50 [30]: 183 nM
TGI [30]: > 100000 nM
GI50 [31]: 41500 nM
TGI [31]: > 100000 nM
GI50 [32]: 34100 nM
TGI [32]: 60800 nM
GI50 [33]: 5830 nM
TGI [33]: 19700 nM
GI50 [34]: 28600 nM
TGI [34]: 57700 nM
GI50 [35]: 48900 nM
TGI [35]: > 93600 nM
GI50 [36]: 60000 nM
TGI [36]: > 94600 nM
GI50 [37]: 24900 nM
TGI [37]: 52000 nM
GI50 [38]: 48700 nM
TGI [38]: > 100000 nM
GI50 [39]: 22100 nM
TGI [39]: 67000 nM
GI50 [40]: 11700 nM
TGI [40]: > 60700 nM
GI50 [41]: 26000 nM
TGI [41]: > 74400 nM
GI50 [42]: < 10 nM
GI50 [43]: 27700 nM
TGI [43]: > 70900 nM
GI50 [44]: > 62800 nM
TGI [44]: > 81300 nM
GI50 [45]: 1280 nM
TGI [45]: > 63800 nM
GI50 [46]: 25300 nM
TGI [46]: 62600 nM
GI50 [47]: 42300 nM
TGI [47]: > 84500 nM
GI50 [48]: 43800 nM
TGI [48]: > 100000 nM
GI50 [49]: 33000 nM
TGI [49]: > 75900 nM
GI50 [50]: 11700 nM
TGI [50]: > 66400 nM
GI50 [51]: 55500 nM
TGI [51]: > 100000 nM
GI50 [52]: 7220 nM
TGI [52]: 41000 nM
GI50 [53]: 29300 nM
TGI [53]: > 75700 nM
GI50 [54]: 6590 nM
TGI [54]: 24300 nM

Nc1ccc(-c2ccc3ncc4ccc(=O)n(-c5cccc(C(F)(F)F)c5)c4c3c2)cn1
GI50 [1]: < 10 nM
TGI [1]: 378 nM
GI50 [2]: < 10 nM
TGI [2]: 136 nM
GI50 [3]: < 10 nM
TGI [3]: 62.9 nM
GI50 [4]: 26.1 nM
TGI [4]: 1000 nM
GI50 [5]: < 10 nM
TGI [5]: 86 nM
GI50 [6]: 26.1 nM
TGI [6]: 1070 nM
GI50 [7]: < 10 nM
TGI [7]: 24.5 nM
GI50 [8]: < 10 nM
TGI [8]: 389 nM
GI50 [10]: < 10 nM
TGI [10]: 46.9 nM
GI50 [11]: < 10 nM
TGI [11]: 12500 nM
GI50 [55]: < 10 nM
TGI [55]: 1020 nM
GI50 [12]: 45.6 nM
TGI [12]: 1320 nM
GI50 [13]: 17.9 nM
TGI [13]: 128 nM
GI50 [14]: < 10 nM
TGI [14]: 1070 nM
GI50 [15]: 11.4 nM
TGI [15]: 1370 nM
GI50 [16]: 20.5 nM
TGI [16]: 103 nM
GI50 [18]: 10.5 nM
TGI [18]: 318 nM
GI50 [19]: 30.1 nM
TGI [19]: 1190 nM
GI50 [20]: < 10 nM
TGI [20]: 196 nM
GI50 [21]: < 10 nM
TGI [21]: 35.8 nM
GI50 [56]: 10.2 nM
TGI [56]: 91.4 nM
GI50 [22]: 26 nM
TGI [22]: 14200 nM
GI50 [23]: 17.5 nM
TGI [23]: 1400 nM
GI50 [25]: 13.4 nM
TGI [25]: 67.3 nM
GI50 [57]: < 10 nM
TGI [57]: 565 nM
GI50 [26]: < 10 nM
TGI [26]: < 10 nM
GI50 [27]: < 10 nM
TGI [27]: < 10 nM
GI50 [29]: 23.2 nM
TGI [29]: 400 nM
GI50 [30]: < 10 nM
TGI [30]: 168 nM
GI50 [31]: < 10 nM
TGI [31]: 1310 nM
GI50 [32]: < 10 nM
TGI [32]: 293 nM
GI50 [33]: < 10 nM
TGI [33]: < 10 nM
GI50 [34]: < 10 nM
TGI [34]: 171 nM
GI50 [35]: < 10 nM
TGI [35]: 122 nM
GI50 [36]: < 10 nM
TGI [36]: 13.2 nM
GI50 [37]: < 10 nM
TGI [37]: 38.9 nM
GI50 [38]: 52.3 nM
TGI [38]: 2380 nM
GI50 [40]: < 10 nM
TGI [40]: 40.2 nM
GI50 [41]: < 10 nM
TGI [41]: 1080 nM
GI50 [42]: < 10 nM
TGI [42]: 151 nM
GI50 [43]: < 10 nM
TGI [43]: 2470 nM
GI50 [44]: < 10 nM
TGI [44]: 1150 nM
GI50 [45]: < 10 nM
TGI [45]: 33.4 nM
GI50 [46]: < 10 nM
TGI [46]: 2740 nM
GI50 [47]: 34.5 nM
TGI [47]: 1140 nM
GI50 [58]: 25.5 nM
TGI [58]: 199 nM
GI50 [49]: < 10 nM
TGI [49]: 50.8 nM
GI50 [50]: 25.5 nM
TGI [50]: 242 nM
GI50 [59]: 10.5 nM
TGI [59]: 1080 nM
GI50 [51]: < 10 nM
TGI [51]: 46.3 nM
GI50 [52]: < 10 nM
TGI [52]: 168 nM
GI50 [53]: < 10 nM
TGI [53]: 71 nM
GI50 [54]: < 10 nM
TGI [54]: 28.5 nM
